EP1724268A1, “COMPOUND HAVING TGF-BETA INHIBITORY ACTIVITY AND PHARMACEUTICAL COMPOSITION CONTAINING SAME” (KIRIN BEER KABUSHIKI KAISHA, priority 2004, dated 2005)

Tests used:
A549 cells = test: Cell growth inhibitory activity using A549 cells (Test Example 6); format: cell-based, Human; settings: for inhibition at 30 µM: Homo sapiens, A549, compound 30 µM, 5% serum, 40 hr, counting kit-8, read-out: Cell growth inhibition rate (%); for inhibitory activity against cell growth of A549 cells: as compared with Example 274 described in WO 03/00660; for inhibitory activity against cell growth or BMP4 signals: as compared with Example 261 or Example 269 described in WO 03/00660
Protocol: Human lung cancer epithelial cells (A549) (available from ATCC) were suspended to a concentration of 3 × 10^4/ml in a DMEM/F12 medium containing 10%FCS, and the suspension was inoculated in 100 µl portions in wells of a 96-well plate. On the following day, a stock solution of the test compound which had been adjusted to 10 mM with DMSO was adjusted with a serum-free DMEM/F12 medium to a dose (60 µM) which was twice the evaluation concentration. After removing the medium inoculated in the 96 wells on the previous day, the solution was added in 50 µl portions to the plate. Next, a DMEM/F12 medium containing 10% serum was added in 50 µl portions to the wells, followed by culturing at 37°C for 40 hr. The final concentration of the serum and the concentration of the evaluation compound were 5% and 30 µM, respectively. The compounds according to the present invention synthesized in the working example were used as the test compound. […]
After 40 hr, the culture was removed, and 100 µl of a solution prepared by diluting counting kit-8 (purchased from Dojindo) with a serum-free F12 medium by 10 times was added, followed by culturing at 37°C for 20 to 30 min. After the confirmation of suitable color development, the absorbance at 450 nm was measured with ARVO (purchased from Wallach Bethold Japan). The cell growth inhibition in the test compound added wells were determined by presuming the absorbance value in the test compound-free wells to be 0% and the absorbance value in the cell-free wells to be 100%.

BMP4 signal = test: BMP signal inhibitory activity, p(GCCG)12-Luc reporter in HepG2 cells (Test Example 7); format: cell-based, human; settings: for inhibitory activity against BMP4 signals: as compared with Example 274 described in WO 03/00660; for Selectivity for BMP (times): Inhibitory activity against BMP4 signal (IC50)/Inhibitory activity against TGFβ signal (IC50), HepG2 reporter cells, BMP4 20 ng/ml, TGFβ-1 2 ng/ml, 4 hr
From the text: The inhibitory activity of the compounds according to the present invention against BMP signals was studied using a cell line through which TGFb and BMP signals can be simultaneously observed. Specifically, the cell lines capable of detecting the two signal was generated by transfecting reporter plasmids for detection of TGFb and BMP signals into a human hepatocarcinoma cell line HepG2(available from ATCC) and was used as evaluation cells. For detection of TGF-beta signal, the plasmid having four tandem binding sequences of Smad2/3, TGF-beta signal transducers, to the upstream of a luciferases gene were used as a reporter plasmid (p(SBE)4-Luc/hygro). For detection of BMP signal, the plasmid having twelve tandem binding sequences of Smadl/5/8, BMP signal transducers, to the upstream of a luciferases gene were used as a reporter plasmid (p(GCCG)12-Luc/neo), according to the method described in Mol Biol Cell. 2000 11(2): 555-65. The test compound and TGFβ-1 (2 ng/ml) or BMP4 (20 ng/ml) were added to the cells, and the mixture was cultured for 4 hr. The compounds according to the present invention synthesized in the working example were used as the test compound. […] After the culture, the luciferase activity of the cells was measured by chemiluminescence (Steady Glo (trademark) luciferase assay system, available from Promega). Likewise, the luciferase activity was measured as control for the culture of cells with only TGFβ or BMP4 added thereto and the culture of cells with the addition of none of TGFβ, BMP4 and the test compound. The inhibitory activity IC50 of the compounds against TGFβ and BMP4 was calculated based on the results of measurement, and the kinase selectivity for BMP4 was determined by the following method. Kinase selectivity for BMP4 (times) = Inhibitory activity against BMP4 signal (IC50)/Inhibitory activity against TGFβ signal (IC50)

TGFβ signal = TGFβ signal inhibitory activity, (SBE)4-Luc reporter in A549 cells (Test Examples 1A and 1B); format: cell-based, human; settings: Homo sapiens, A549, TGFβ-1 2 ng/ml, 4 hr, Table 1A, read-out: TGFβ inhibition rate, %; for inhibition at 3 µM: test compound 3 µM; for inhibition at 10 µM: test compound 10 µM
Method in brief: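 Stable A549 line carrying (SBE)4-Luc Smad3-binding reporter treated with compound plus TGFβ-1 (2 ng/ml) for 4 hr; luciferase read by chemiluminescence. Percent inhibition relative to TGFβ-only and untreated cells, tested at 3 µM and 10 µM, some also at 1 µM.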

SMILES | inhibition at 30 µM (A549 cells) [%] | inhibitory activity against cell growth of A549 cells (A549 cells) | inhibitory activity against BMP4 signals (BMP4 signal) | inhibition at 3 µM (TGFβ signal) [%] | inhibition at 10 µM (TGFβ signal) [%] | Selectivity for BMP (times) (BMP4 signal) | inhibitory activity against cell growth or BMP4 signals (A549 cells)
CCc1ccc(Oc2ccnc3cc(F)c(OCCO)cc23)c(-c2ncccn2)n1 [Compound 225, 2-[4-(6-Ethyl-2-pyrimidin-2-yl-pyridin-3-yloxy)-7-fluoro-quinolin-6-yloxy]-ethanol] | 8 | reduced inhibitory activity | reduced inhibitory activity | 89 | 99 |  | 
CCc1ccc(Oc2ccnc3cc(C(N)=O)c(O)cc23)c(-c2ncccn2)n1 [Compound 194, 4-(6-Ethyl-2-pyrimidin-2-yl-pyridin-3-yloxy)-6-hydroxy-quinoline-7-carboxylic acid amide] | -15 | reduced inhibitory activity | reduced inhibitory activity | 60 |  | 51 | 
CCc1ccc(Oc2ccnc3ccc(OCCOC(C)=O)cc23)c(-c2ncccn2)n1 [Compound 206, 2-[4-(6-Ethyl-2-pyrimidin-2-yl-pyridin-3-yloxy)-quinolin-6-yloxy]-ethyl acetate] | -1 | reduced inhibitory activity | reduced inhibitory activity | 89 |  |  | 
Cc1ccc(Oc2ccnc3ccc(OCCO)cc23)c(-c2ncccn2)n1 [Compound 202, 2-[4-(6-Methyl-2-pyrimidin-2-yl-pyridin-3-yloxy)-quinolin-6-yloxy]-ethanol] | 8 | reduced inhibitory activity | reduced inhibitory activity | 86 |  | 21.4 | 
CCc1ccc(Oc2ccnc3ccc(OCCO)cc23)c(-c2ncccn2)n1 [Compound 192, 2-[4-(6-Ethyl-2-pyrimidin-2-yl-pyridin-3-yloxy)-quinolin-6-yloxy]-ethanol] | 3 | reduced inhibitory activity | reduced inhibitory activity | 97 | 100 | > 176 | 
CCc1ccc(Oc2ccnc3ccc(OCCOC(C)=O)cc23)c(-c2ccccn2)n1 [Compound 182, 2-[4-(6-Ethyl-[2,2']bipyridinyl-3-yloxy)-quinolin-6-yloxy]-ethyl acetate] | -8 |  |  | 99 | 100 | 195 | reduced inhibitory activity
Cc1ccc(Oc2ccnc3cc(C(N)=O)ccc23)c(-c2ncccn2)n1 [Compound 217, 4-(6-Methyl-2-pyrimidin-2-yl-pyridin-3-yloxy)-quinoline-7-carboxylic acid amide] | 4 | reduced inhibitory activity | reduced inhibitory activity | 90 | 100 |  | 
CCc1ccc(Oc2ccnc3ccc(O)cc23)c(-c2ccccn2)n1 [Compound 184, 4-(6-Ethyl-[2,2']bipyridinyl-3-yloxy)-quinolin-6-ol] | 8 |  |  | 100 | 100 | > 428 | reduced inhibitory activity
CCc1ccc(Oc2ccnc3ccc(OCCN)cc23)c(-c2ncccn2)n1 [Compound 204, 2-[4-(6-Ethyl-2-pyrimidin-2-yl-pyridin-3-yloxy)-quinolin-6-yloxy]-ethylamine] | -9 | reduced inhibitory activity | reduced inhibitory activity | 84 |  |  | 
Cc1ccc(Oc2ccnc3ccc(OCCCO)cc23)c(-c2ncccn2)n1 [Compound 222, 3-[4-(6-Methyl-2-pyrimidin-2-yl-pyridin-3-yloxy)-quinolin-6-yloxy]-propan-1-ol] | 6 | reduced inhibitory activity | reduced inhibitory activity | 91 | 100 |  | 
Cc1ccc(Oc2ccnc3ccc(O)cc23)c(-c2ncccn2)n1 [Compound 201, 4-(6-Methyl-2-pyrimidin-2-yl-pyridin-3-yloxy)-quinolin-6-ol] | 2 | reduced inhibitory activity | reduced inhibitory activity | 82 |  |  | 
Cc1cc(Oc2ccnc3ccc(OCCO)cc23)c(-c2ncccn2)nc1C [Compound 200, 2-[4-(5,6-Dimethyl-2-pyrimidin-2-yl-pyridin-3-yloxy)-quinolin-6-yloxy]-ethanol] | 0 | reduced inhibitory activity | reduced inhibitory activity | 85 |  | 75 | 
CCc1ccc(Oc2ccnc3ccc(OS(C)(=O)=O)cc23)c(-c2ccccn2)n1 [Compound 187, 4-(6-Ethyl-[2,2']bipyridinyl-3-yloxy)-quinolin-6-yl methanesulfonate] | 0 |  |  | 100 | 100 | 72 | reduced inhibitory activity
CCc1ccc(Oc2ccnc3ccc(OCCO)cc23)c(-c2ccccn2)n1 [Compound 181, 2-[4-(6-Ethyl-[2,2']bipyridinyl-3-yloxy)-quinolin-6-yloxy]-ethanol] | -7 |  |  | 100 | 100 | 308 | reduced inhibitory activity
